Reference: patent US6440400B1, “Trimethylcylohexane derivatives and melanin-formation inhibitors and perfumeholding agents with the use of the same” (Takasago International Corporation, priority 1998, dated 2002)

Experiments:
[1] = test system: B-16 melanoma cells; experiment: Melanin production inhibiting effect on chromatophore (visual whiteness of cell pellets); type: cell-based; design: key: −: Equal to solvent control (black); +: Slightly different from solvent control (dark gray); ++: Markedly different from solvent control (pale gray); +++: No coloring of cells (white); conditions: 3 days culture with sample
Procedure: A plastic culture flask (25 cm^2) was inoculated with 8×10^4 B-16 melanoma cells, which were incubated in a DMEN medium (Nippon Suisan Kaisha, Ltd.) containing 10% serum in the presence of 5% CO2 at 37° C. After 3 days, a test sample diluted with EtOH was added to the medium at a concentration of 0.4, 0.8, 1.6, 3.1 and 6.2 ppm and the culture was continued for further 3 days.
After completion of the culture to remove the culture followed by washing with a phosphate buffer (hereinafter referred to as PBS), the cells were removed from the flask using a medium containing trypsin and EDTA (ethylenediamine tetraacetic acid) and the cells were recovered from the cell suspension by centrifugation.
The cells thus obtained were washed once with PBS and then the pellets were evaluated visually for their whiteness.
Similarly to Example 16, the melanin production inhibiting effects of arbutin, tetrahydroionol, β-ionone, dihydro-β-ionone and the novel compounds of the invention (1′i, 1″i, 1^4′i) on a chromatophore were determined.

[2] = Patch test of 2% lanolin paste on upper arm of panelists; type: in vivo, human; conditions: 2% by weight in lanolin paste, 24 h patch on upper arm, 30 panelists, observed at removal and 24 h later

## CCC(O)CCC1C(C)CCCC1(C)C (stereo not drawn) [1^4′b]
[1]; 1.6 ppm
  whiteness of cell pellets, evaluated visually: +
[1]; 3.1 ppm
  whiteness of cell pellets, evaluated visually: ++
[1]; 6.2 ppm
  whiteness of cell pellets, evaluated visually: +++

## CCCC(O)CCC1C(C)CCCC1(C)C (stereo not drawn) [1^4′c]
[1]; 1.6 ppm
  whiteness of cell pellets, evaluated visually: +
[1]; 3.1 ppm
  whiteness of cell pellets, evaluated visually: ++
[1]; 6.2 ppm
  whiteness of cell pellets, evaluated visually: +++

## CC(C)C(O)CCC1C(C)CCCC1(C)C (stereo not drawn) [1^4′e]
[1]; 1.6 ppm
  whiteness of cell pellets, evaluated visually: +
[1]; 3.1 ppm
  whiteness of cell pellets, evaluated visually: ++
[1]; 6.2 ppm
  whiteness of cell pellets, evaluated visually: +++

## CC(C)CC(O)CCC1C(C)CCCC1(C)C (stereo not drawn) [1^4′g]
[1]; 1.6 ppm
  whiteness of cell pellets, evaluated visually: ++
[1]; 3.1 ppm
  whiteness of cell pellets, evaluated visually: +++
[1]; 6.2 ppm
  whiteness of cell pellets, evaluated visually: +++

## CCC(=O)C=CC1C(C)CCCC1(C)C (stereo not drawn) [1′b]
[1]; 1.6 ppm
  whiteness of cell pellets, evaluated visually: +
[1]; 3.1 ppm
  whiteness of cell pellets, evaluated visually: ++
[1]; 6.2 ppm
  whiteness of cell pellets, evaluated visually: +++

## CCCC(=O)C=CC1C(C)CCCC1(C)C (stereo not drawn) [1′c]
[1]; 1.6 ppm
  whiteness of cell pellets, evaluated visually: +
[1]; 3.1 ppm
  whiteness of cell pellets, evaluated visually: ++
[1]; 6.2 ppm
  whiteness of cell pellets, evaluated visually: +++

## CC(C)CC(=O)C=CC1C(C)CCCC1(C)C (stereo not drawn) [1′g]
[1]; 1.6 ppm
  whiteness of cell pellets, evaluated visually: +
[1]; 3.1 ppm
  whiteness of cell pellets, evaluated visually: ++
[1]; 6.2 ppm
  whiteness of cell pellets, evaluated visually: +++

## CC1CCCC(C)(C)C1C=CC(=O)C(C)(C)C (stereo not drawn) [1′h]
[1]; 1.6 ppm
  whiteness of cell pellets, evaluated visually: +
[1]; 3.1 ppm
  whiteness of cell pellets, evaluated visually: ++
[1]; 6.2 ppm
  whiteness of cell pellets, evaluated visually: +++

## CCCCCC(=O)C(C)=CC1C(C)CCCC1(C)C (stereo not drawn) [1′x, 1-(2′,2′,6′-Trimethylcyclohexan-1′-yl)-2-methyloctan-1-en-3-one]
[1]; 1.6 ppm
  whiteness of cell pellets, evaluated visually: +
[1]; 3.1 ppm
  whiteness of cell pellets, evaluated visually: ++
[1]; 6.2 ppm
  whiteness of cell pellets, evaluated visually: +++

## CCC(O)C=CC1C(C)CCCC1(C)C (stereo not drawn) [1″b]
[1]; 1.6 ppm
  whiteness of cell pellets, evaluated visually: +
[1]; 3.1 ppm
  whiteness of cell pellets, evaluated visually: ++
[1]; 6.2 ppm
  whiteness of cell pellets, evaluated visually: +++

## CCCC(O)C=CC1C(C)CCCC1(C)C (stereo not drawn) [1″c]
[1]; 1.6 ppm
  whiteness of cell pellets, evaluated visually: ++
[1]; 3.1 ppm
  whiteness of cell pellets, evaluated visually: +++
[1]; 6.2 ppm
  whiteness of cell pellets, evaluated visually: +++

## CC(C)CC(O)C=CC1C(C)CCCC1(C)C (stereo not drawn) [1″g]
[1]; 1.6 ppm
  whiteness of cell pellets, evaluated visually: +++
[1]; 3.1 ppm
  whiteness of cell pellets, evaluated visually: +++
[1]; 6.2 ppm
  whiteness of cell pellets, evaluated visually: +++

## CCC(O)C(C)=CC1C(C)CCCC1(C)C (stereo not drawn) [1″u]
[1]; 1.6 ppm
  whiteness of cell pellets, evaluated visually: +
[1]; 3.1 ppm
  whiteness of cell pellets, evaluated visually: ++
[1]; 6.2 ppm
  whiteness of cell pellets, evaluated visually: +++

## OC[C@H]1O[C@@H](Oc2ccc(O)cc2)[C@H](O)[C@@H](O)[C@@H]1O [ARBUTIN, arbutin, reference compound]
[1]; 0.4 ppm
  whiteness of cell pellets, evaluated visually: −
[1]; 0.8 ppm
  whiteness of cell pellets, evaluated visually: −
[1]; 1.6 ppm
  whiteness of cell pellets, evaluated visually: −
[1]; 3.1 ppm
  whiteness of cell pellets, evaluated visually: −
[1]; 6.2 ppm
  whiteness of cell pellets, evaluated visually: +

## CCCCCC(O)CCC1C(C)CCCC1(C)C (stereo not drawn) [Compound 1^4′i, 1-(2′,2′,6′-Trimethylcyclohexan-1′-yl)-octan-3-ol]
[1]; 0.4 ppm
  whiteness of cell pellets, evaluated visually: −
[1]; 0.8 ppm
  whiteness of cell pellets, evaluated visually: −
[1]; 1.6 ppm
  whiteness of cell pellets, evaluated visually: ++
[1]; 3.1 ppm
  whiteness of cell pellets, evaluated visually: +++
[1]; 6.2 ppm
  whiteness of cell pellets, evaluated visually: +++

## CCCCCCCC(O)CCC1C(C)CCCC1(C)C (stereo not drawn) [Compound 1^4′m, 1-(2′,2′,6′-Trimethylcyclohexan-1′-yl)-decan-3-ol]
[1]; 1.6 ppm
  whiteness of cell pellets, evaluated visually: +
[1]; 3.1 ppm
  whiteness of cell pellets, evaluated visually: +
[1]; 6.2 ppm
  whiteness of cell pellets, evaluated visually: +

## CCCCCC(=O)C=CC1C(C)CCCC1(C)C (stereo not drawn) [Compound 1′i, 1-(2′,2′,6′-Trimethylcyclohexan-1′-yl)octan-1-en-3-one]
[2]
  Number of panelists exhibiting abnormality: 0
  Number ot panelists exhibiting no abnormality: 30
[1]; 0.4 ppm
  whiteness of cell pellets, evaluated visually: −
[1]; 0.8 ppm
  whiteness of cell pellets, evaluated visually: +
[1]; 1.6 ppm
  whiteness of cell pellets, evaluated visually: +++
[1]; 3.1 ppm
  whiteness of cell pellets, evaluated visually: +++
[1]; 6.2 ppm
  whiteness of cell pellets, evaluated visually: +++

## CC(C)CCCC(=O)C=CC1C(C)CCCC1(C)C (stereo not drawn) [Compound 1′k, 1-(2′,2′,6′-Trimethylcyclohexan-1′-yl)-7-methyloctan-1-en-3-one]
[1]; 1.6 ppm
  whiteness of cell pellets, evaluated visually: ++
[1]; 3.1 ppm
  whiteness of cell pellets, evaluated visually: +++
[1]; 6.2 ppm
  whiteness of cell pellets, evaluated visually: +++

## CC(C)=CCCC(=O)C=CC1C(C)CCCC1(C)C (stereo not drawn) [Compound 1′l, 1-(2′,2′,6′-Trimethylcyclohexan-1′-yl)-7-methyloctan-1,6-dien-3-one]
[1]; 1.6 ppm
  whiteness of cell pellets, evaluated visually: +
[1]; 3.1 ppm
  whiteness of cell pellets, evaluated visually: +++
[1]; 6.2 ppm
  whiteness of cell pellets, evaluated visually: +++

## CCCCCCCC(=O)C=CC1C(C)CCCC1(C)C (stereo not drawn) [Compound 1′m, 1-(2′,2′,6′-Trimethylcyclohexan-1′-yl)-decan-1-en-3-one]
[1]; 1.6 ppm
  whiteness of cell pellets, evaluated visually: +
[1]; 3.1 ppm
  whiteness of cell pellets, evaluated visually: +
[1]; 6.2 ppm
  whiteness of cell pellets, evaluated visually: +++

## CCCCCC(O)C=CC1C(C)CCCC1(C)C (stereo not drawn) [Compound 1″i, 1-(2′,2′,6′-trimethylcyclohexan-1′-yl)octan-1-en-3-ol]
[2]
  Number of panelists exhibiting abnormality: 0
  Number ot panelists exhibiting no abnormality: 30
[1]; 0.4 ppm
  whiteness of cell pellets, evaluated visually: −
[1]; 0.8 ppm
  whiteness of cell pellets, evaluated visually: +
[1]; 1.6 ppm
  whiteness of cell pellets, evaluated visually: +++
[1]; 3.1 ppm
  whiteness of cell pellets, evaluated visually: +++
[1]; 6.2 ppm
  whiteness of cell pellets, evaluated visually: +++

## CC(C)CCCC(O)C=CC1C(C)CCCC1(C)C (stereo not drawn) [Compound 1″k, 1-(2′,2′,6′-Trimethylcyclohexan-1′-yl)-7-methyloctan-1-en-3-ol]
[1]; 1.6 ppm
  whiteness of cell pellets, evaluated visually: +++
[1]; 3.1 ppm
  whiteness of cell pellets, evaluated visually: +++
[1]; 6.2 ppm
  whiteness of cell pellets, evaluated visually: +++

## CC(C)=CCCC(O)C=CC1C(C)CCCC1(C)C (stereo not drawn) [Compound 1″l, 1-(2′,2′,6′-Trimethylcyclohexan-1′-yl)-7-methyloctan-1,6-dien-3-ol]
[1]; 1.6 ppm
  whiteness of cell pellets, evaluated visually: +++
[1]; 3.1 ppm
  whiteness of cell pellets, evaluated visually: +++
[1]; 6.2 ppm
  whiteness of cell pellets, evaluated visually: +++

## CCCCCCCC(O)C=CC1C(C)CCCC1(C)C (stereo not drawn) [Compound 1″m, 1-(2′,2′,6′-Trimethylcyclohexan-1′-yl)-decan-1-en-3-ol]
[1]; 1.6 ppm
  whiteness of cell pellets, evaluated visually: +
[1]; 3.1 ppm
  whiteness of cell pellets, evaluated visually: +
[1]; 6.2 ppm
  whiteness of cell pellets, evaluated visually: +++

## CCCCCC(O)C(C)=CC1C(C)CCCC1(C)C (stereo not drawn) [Compound 1″x, 1-(2′,2′,6′-Trimethylcyclohexan-1′-yl)-2-methyloctan-1-en-3-ol]
[1]; 1.6 ppm
  whiteness of cell pellets, evaluated visually: +
[1]; 3.1 ppm
  whiteness of cell pellets, evaluated visually: ++
[1]; 6.2 ppm
  whiteness of cell pellets, evaluated visually: +++

## CC(=O)CCC1=C(C)CCCC1(C)C [Dihydro-β-ionone, dihydro-β-ionone, reference compound]
[1]; 0.4 ppm
  whiteness of cell pellets, evaluated visually: −
[1]; 0.8 ppm
  whiteness of cell pellets, evaluated visually: −
[1]; 1.6 ppm
  whiteness of cell pellets, evaluated visually: −
[1]; 3.1 ppm
  whiteness of cell pellets, evaluated visually: +
[1]; 6.2 ppm
  whiteness of cell pellets, evaluated visually: ++

## CC(O)CCC1C(C)CCCC1(C)C (stereo not drawn) [Tetrahydroionol, tetrahydroionol, reference compound]
[1]; 0.4 ppm
  whiteness of cell pellets, evaluated visually: −
[1]; 0.8 ppm
  whiteness of cell pellets, evaluated visually: −
[1]; 1.6 ppm
  whiteness of cell pellets, evaluated visually: −
[1]; 3.1 ppm
  whiteness of cell pellets, evaluated visually: +
[1]; 6.2 ppm
  whiteness of cell pellets, evaluated visually: ++

## CC(=O)/C=C/C1=C(C)CCCC1(C)C [β-Ionone, β-ionone, reference compound]
[1]; 0.4 ppm
  whiteness of cell pellets, evaluated visually: −
[1]; 0.8 ppm
  whiteness of cell pellets, evaluated visually: −
[1]; 1.6 ppm
  whiteness of cell pellets, evaluated visually: −
[1]; 3.1 ppm
  whiteness of cell pellets, evaluated visually: +
[1]; 6.2 ppm
  whiteness of cell pellets, evaluated visually: ++
